Experimental data from ChEMBL document CHEMBL4680348, “1,2,4-Thiadiazole acyclic nucleoside phosphonates as inhibitors of cysteine dependent enzymes cathepsin K and GSK-3β” (Bioorg Med Chem, 2021).

Columns and labels:
[1] = target: T1, Cathepsin K (Homo sapiens) (UniProt P43235); test: Inhibition of recombinant human Cathepsin K expressed in Pichia pastoris X-33 assessed as residual activity at 10 uM using Z-Gly-Pro-Arg-AMC as substrate preincubated for 10 mins followed by substrate addition measured after 30 mins by fluorescence based microplate reader assay; details: time 40.0 min
T1 sequence (whole entry): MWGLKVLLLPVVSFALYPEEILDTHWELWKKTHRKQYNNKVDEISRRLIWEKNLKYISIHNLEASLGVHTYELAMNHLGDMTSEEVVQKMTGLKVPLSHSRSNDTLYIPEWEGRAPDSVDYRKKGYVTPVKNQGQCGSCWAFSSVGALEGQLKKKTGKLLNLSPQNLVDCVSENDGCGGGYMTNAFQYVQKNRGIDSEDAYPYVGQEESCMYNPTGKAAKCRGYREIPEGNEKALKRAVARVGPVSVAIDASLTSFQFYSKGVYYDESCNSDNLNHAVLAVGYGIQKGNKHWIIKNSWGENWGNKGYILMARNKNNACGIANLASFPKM

CCRF-CEM [2] = test: Cytotoxicity against human CCRF-CEM cells assessed as cell viability at 10 uM incubated for 72 hrs by CellTiter-Glo luminescence based assay; assay type: functional; details: read-out: Activity
CCRF-CEM [3] = test: Cytotoxicity against human CCRF-CEM cells assessed as cell viability at 100 uM incubated for 72 hrs by CellTiter-Glo luminescence based assay; assay type: functional; details: read-out: Activity
HL-60 [4] = test: Cytotoxicity against human HL-60 cells assessed as cell viability at 10 uM incubated for 72 hrs by CellTiter-Glo luminescence based assay; assay type: functional; details: read-out: Activity
HL-60 [5] = test: Cytotoxicity against human HL-60 cells assessed as cell viability at 100 uM incubated for 72 hrs by CellTiter-Glo luminescence based assay; assay type: functional; details: read-out: Activity
HeLa S3 [6] = test: Cytotoxicity against human HeLa S3 cells assessed as cell viability at 10 uM incubated for 72 hrs by CellTiter-Glo luminescence based assay; assay type: functional; details: read-out: Activity
HeLa S3 [7] = test: Cytotoxicity against human HeLa S3 cells assessed as cell viability at 100 uM incubated for 72 hrs by CellTiter-Glo luminescence based assay; assay type: functional; details: read-out: Activity
HepG2 [8] = test: Cytotoxicity against human HepG2 cells assessed as cell viability at 10 uM incubated for 72 hrs by CellTiter-Glo luminescence based assay; assay type: functional; details: read-out: Activity
HepG2 [9] = test: Cytotoxicity against human HepG2 cells assessed as cell viability at 100 uM incubated for 72 hrs by CellTiter-Glo luminescence based assay; assay type: functional; details: read-out: Activity
SH-SY5Y [10] = test: Cytotoxicity against human SH-SY5Y cells assessed as cell viability at 10 uM incubated for 72 hrs by CellTiter-Glo luminescence based assay; assay type: functional; details: read-out: Activity
SH-SY5Y [11] = test: Cytotoxicity against human SH-SY5Y cells assessed as cell viability at 100 uM incubated for 72 hrs by CellTiter-Glo luminescence based assay; assay type: functional; details: read-out: Activity
[12] = Cytotoxicity against human NHDF cells assessed as cell viability at 10 uM incubated for 72 hrs by CellTiter-Glo luminescence based assay; details: read-out: Activity
[13] = Cytotoxicity against human NHDF cells assessed as cell viability at 100 uM incubated for 72 hrs by CellTiter-Glo luminescence based assay; details: read-out: Activity
[14] = target: Glycogen synthase kinase-3 beta (Homo sapiens, UniProt P49841); test: Inhibition of human recombinant GSK3beta using GSK3 peptide as substrate preincubated for 15 mins followed by ATP addition and measured after 90 mins by ADP-Glo kinase assay
Glycogen synthase kinase-3 beta, sequence (P49841 whole entry): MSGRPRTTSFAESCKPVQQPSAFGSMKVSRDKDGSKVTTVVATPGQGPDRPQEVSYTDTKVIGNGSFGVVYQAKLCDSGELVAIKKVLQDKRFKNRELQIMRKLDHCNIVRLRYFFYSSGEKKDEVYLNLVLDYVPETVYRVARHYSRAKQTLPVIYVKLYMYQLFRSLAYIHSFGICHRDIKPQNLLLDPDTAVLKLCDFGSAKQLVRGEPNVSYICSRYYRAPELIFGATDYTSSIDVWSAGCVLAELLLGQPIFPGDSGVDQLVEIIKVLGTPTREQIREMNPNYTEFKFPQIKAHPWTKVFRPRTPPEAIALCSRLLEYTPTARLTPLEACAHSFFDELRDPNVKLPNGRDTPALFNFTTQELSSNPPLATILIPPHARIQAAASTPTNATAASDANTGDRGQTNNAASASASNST

Compound | Activity [1] | IC50 [14] | viability at 10 µM (CCRF-CEM [2]) | viability at 100 µM (CCRF-CEM [3]) | viability at 10 µM (HL-60 [4]) | viability at 100 µM (HL-60 [5]) | viability at 10 µM (HeLa S3 [6]) | viability at 100 µM (HeLa S3 [7]) | viability at 10 µM (HepG2 [8]) | viability at 100 µM (HepG2 [9]) | viability at 10 µM (SH-SY5Y [10]) | viability at 100 µM (SH-SY5Y [11]) | viability at 72 h, 10 µM [12] | viability at 72 h, 100 µM [13]
O=C(Nc1nc(=O)n(C[C@@H](CO)OCP(=O)(O)O)s1)c1ccccc1 | 92.3% | > 10 µM | 72% | 61% | 103% | 106% | 97% | 101% | 101% | 100% | 101% | 103% | 105% | 98%
O=c1sn(-c2cccc3ccccc23)c(=O)n1Cc1ccccc1 [TIDEGLUSIB] | – | – | 30% | – | 34% | – | 69% | – | 92% | – | 80% | – | 57% | –
O=C(Nc1nc(=O)[nH]s1)c1ccccc1 | 85% | > 10 µM | 102% | 96% | 101% | 110% | 99% | 101% | 99% | 77% | 103% | 90% | 104% | 100%
CC(C)OP(=O)(COCCn1sc(NC(=O)c2ccccc2)nc1=O)OC(C)C | 80.6% | > 10 µM | 100% | 94% | 104% | 115% | 101% | 100% | 103% | 101% | 104% | 101% | 103% | 101%
CCOC(=O)Nc1nc(=O)n(C[C@@H](CO)OCP(=O)(O)O)s1 | 97.5% | > 10 µM | 94% | 114% | 95% | 99% | 97% | 94% | 99% | 89% | 100% | 99% | 101% | 99%
O=C(Nc1nc(=O)n(C[C@@H](CO)OCP(=O)(O)O)s1)OCC1c2ccccc2-c2ccccc21 | 85.5% | > 10 µM | 88% | 119% | 93% | 100% | 98% | 99% | 106% | 88% | 99% | 93% | 98% | 95%
Cc1cnc(-c2cnc(NCCNc3ccc(C#N)cn3)nc2-c2ccc(Cl)cc2Cl)[nH]1 [LADUVIGLUSIB] | – | – | 28% | – | 119% | – | 67% | – | 86% | – | 77% | – | 53% | –
CN(C)/C=N/c1nc(=O)[nH]s1 | 67% | > 10 µM | 122% | 84% | 102% | 105% | 97% | 112% | 97% | 85% | 100% | 75% | 105% | 107%

More lines, main results first:

Activity [1] | IC50 [14] | Compound | viability at 10 µM (CCRF-CEM [2]) | viability at 100 µM (CCRF-CEM [3]) | viability at 10 µM (HL-60 [4]) | viability at 100 µM (HL-60 [5]) | viability at 10 µM (HeLa S3 [6]) | viability at 100 µM (HeLa S3 [7]) | viability at 10 µM (HepG2 [8]) | viability at 100 µM (HepG2 [9]) | viability at 10 µM (SH-SY5Y [10]) | viability at 100 µM (SH-SY5Y [11]) | viability at 72 h, 10 µM [12] | viability at 72 h, 100 µM [13]
78.3% | > 10 µM | CC(C)OP(=O)(COCCOc1nsc(N)n1)OC(C)C | 114% | 103% | 103% | 108% | 97% | 98% | 100% | 99% | 98% | 55% | 104% | 114%
86.8% | > 10 µM | CCOC(=O)Nc1nc(=O)n(CCOCP(=O)(OC(C)C)OC(C)C)s1 | 92% | 98% | 102% | 111% | 100% | 101% | 104% | 100% | 105% | 104% | 101% | 98%
90% | > 10 µM | Nc1nc(OCCOCP(=O)(O)O)ns1 | 113% | 112% | 103% | 100% | 101% | 102% | 97% | 93% | 101% | 99% | 105% | 96%
67% | > 10 µM | O=C(Nc1nc(=O)n(CCOCP(=O)(O)O)s1)OCC1c2ccccc2-c2ccccc21 | 85% | 90% | 102% | 106% | 97% | 102% | 105% | 103% | 102% | 99% | 93% | 84%
92.9% | > 10 µM | CC(C)OP(=O)(CO[C@H](CO)Cn1sc(NC(=O)c2ccccc2)nc1=O)OC(C)C | 86% | 97% | 106% | 118% | 97% | 105% | 109% | 99% | 100% | 97% | 103% | 104%
83.4% | > 10 µM | CCOC(=O)Nc1nc(=O)n(C[C@@H](CO)OCP(=O)(OC(C)C)OC(C)C)s1 | 67% | 45% | 97% | 101% | 90% | 87% | 101% | 93% | 104% | 104% | 104% | 100%
76.6% | > 10 µM | CC(=O)Nc1nc(=O)[nH]s1 | 104% | 102% | 105% | 108% | 97% | 102% | 103% | 88% | 102% | 99% | 99% | 105%
52.9% | > 10 µM | CC(C)OP(=O)(COCCOc1nsc(/N=C/N(C)C)n1)OC(C)C | 106% | 93% | 97% | 98% | 101% | 89% | 99% | 90% | 101% | 87% | 101% | 99%
90.3% | > 10 µM | O=C(Nc1nc(=O)n(CCOCP(=O)(O)O)s1)c1ccccc1 | 98% | 100% | 102% | 113% | 101% | 101% | 100% | 100% | 104% | 105% | 103% | 102%
